In patent US10160755B2 (Plexxikon Inc., priority 2015, dated 2018) one finds IC50 data, which are given here for 22 compounds.

For assay [1], the target named is T1, FLT3-ITD (Homo sapiens, UniProt P36888).
T1 construct: FLT3-ITD; Invitrogen #PV6190
T1 sequence (P36888 1-993): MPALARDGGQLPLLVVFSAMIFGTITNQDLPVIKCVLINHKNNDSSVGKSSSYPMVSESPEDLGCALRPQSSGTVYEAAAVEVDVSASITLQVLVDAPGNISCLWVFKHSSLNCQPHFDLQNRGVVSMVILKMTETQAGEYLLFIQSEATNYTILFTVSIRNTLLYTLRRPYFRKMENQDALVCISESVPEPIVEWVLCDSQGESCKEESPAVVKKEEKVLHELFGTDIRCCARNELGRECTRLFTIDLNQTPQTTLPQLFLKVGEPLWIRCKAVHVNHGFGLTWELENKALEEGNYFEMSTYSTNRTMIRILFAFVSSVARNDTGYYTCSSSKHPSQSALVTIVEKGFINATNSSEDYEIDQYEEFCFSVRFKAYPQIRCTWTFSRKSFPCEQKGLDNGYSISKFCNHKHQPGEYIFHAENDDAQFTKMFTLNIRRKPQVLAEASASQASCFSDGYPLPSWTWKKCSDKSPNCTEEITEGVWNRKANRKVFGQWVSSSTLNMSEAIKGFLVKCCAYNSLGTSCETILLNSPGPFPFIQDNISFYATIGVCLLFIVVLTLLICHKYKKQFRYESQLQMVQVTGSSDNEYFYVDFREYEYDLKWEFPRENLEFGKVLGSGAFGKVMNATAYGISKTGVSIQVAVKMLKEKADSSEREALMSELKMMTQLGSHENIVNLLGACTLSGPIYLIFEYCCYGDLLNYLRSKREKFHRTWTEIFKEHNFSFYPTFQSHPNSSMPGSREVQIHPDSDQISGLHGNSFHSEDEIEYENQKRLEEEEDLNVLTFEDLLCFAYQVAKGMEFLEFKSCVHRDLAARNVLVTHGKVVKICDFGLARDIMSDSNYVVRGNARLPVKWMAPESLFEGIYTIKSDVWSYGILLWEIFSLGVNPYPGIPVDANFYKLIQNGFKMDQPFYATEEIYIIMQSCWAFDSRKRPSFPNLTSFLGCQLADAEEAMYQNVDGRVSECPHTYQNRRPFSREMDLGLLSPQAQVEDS
Kind of assay: FLT3-ITD biochemical kinase assay (AlphaScreen). An outline of the steps: (§1)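 Recombinant FLT3 mutant kinases phosphorylate biotin-poly(Glu4-Tyr) peptide (30 nM) at 10 μM ATP for D835Y or 100 μM for ITD. Phosphorylation detected by AlphaScreen: streptavidin donor beads (20 min) then anti-phosphotyrosine PY20 acceptor beads (60 min, RT), signal at 580 nm; inhibition lowers signal.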

Assay [2] concerns the target T2, FLT3-D835Y (Homo sapiens, UniProt P36888, D835Y).
T2 construct: purchased Invitrogen PV3967
T2 sequence (P36888 27-993 D835Y): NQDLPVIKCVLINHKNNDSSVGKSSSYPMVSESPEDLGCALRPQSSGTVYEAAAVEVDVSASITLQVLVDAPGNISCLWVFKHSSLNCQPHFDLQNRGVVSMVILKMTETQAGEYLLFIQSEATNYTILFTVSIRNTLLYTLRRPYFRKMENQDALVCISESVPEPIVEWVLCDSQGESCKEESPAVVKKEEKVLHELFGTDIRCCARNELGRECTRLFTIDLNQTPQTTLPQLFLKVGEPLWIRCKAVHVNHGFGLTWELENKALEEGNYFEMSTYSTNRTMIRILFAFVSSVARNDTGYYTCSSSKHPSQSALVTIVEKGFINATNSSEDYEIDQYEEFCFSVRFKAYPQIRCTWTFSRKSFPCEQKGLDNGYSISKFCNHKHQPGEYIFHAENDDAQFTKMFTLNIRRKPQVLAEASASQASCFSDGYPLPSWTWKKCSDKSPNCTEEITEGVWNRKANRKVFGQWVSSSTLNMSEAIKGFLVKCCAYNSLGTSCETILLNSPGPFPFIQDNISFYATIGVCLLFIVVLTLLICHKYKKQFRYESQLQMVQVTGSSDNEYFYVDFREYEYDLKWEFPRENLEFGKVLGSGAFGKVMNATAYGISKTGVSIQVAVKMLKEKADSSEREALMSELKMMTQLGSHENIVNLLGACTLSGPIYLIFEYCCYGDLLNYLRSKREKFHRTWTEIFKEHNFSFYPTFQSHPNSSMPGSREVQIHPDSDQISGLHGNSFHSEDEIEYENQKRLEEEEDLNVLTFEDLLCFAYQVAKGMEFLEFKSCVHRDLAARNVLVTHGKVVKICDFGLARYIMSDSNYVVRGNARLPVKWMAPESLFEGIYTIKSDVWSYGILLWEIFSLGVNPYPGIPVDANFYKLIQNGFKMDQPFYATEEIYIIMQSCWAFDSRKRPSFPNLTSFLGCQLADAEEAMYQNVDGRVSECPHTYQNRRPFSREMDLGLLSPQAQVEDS
Kind of assay: FLT3-D835Y biochemical kinase assay (AlphaScreen). An outline of the steps: as §1
(In general: Bead proximity is the source of the signal in Alpha formats.)

For `c1cc(-c2cnc3[nH]cc(-c4ccc5ncn(C6CCCNC6)c5c4)c3n2)cc(N2CCCCC2)n1` (stereo not drawn) [P-339, 7-[3-(3-piperidyl)benzimidazol-5-yl]-2-[2-(1-piperidyl)-4-pyridyl]-5H-pyrrolo[2,3-b]pyrazine], the IC50 in assay [1] and in assay [2] was 0.0001 to 1 µM in each case.

Compound `COc1cnc2[nH]cc(-c3ccc4ncn(-c5ccccc5)c4c3)c2c1` [P-068, 5-methoxy-3-(3-phenylbenzimidazol-5-yl)-1H-pyrrolo[2,3-b]pyridine] showed an IC50 in assay [2] of 0.0001 to 1 µM.

As to `CN1CCN(c2cccc(-c3cnc4[nH]cc(-c5ccc6ncn(C(C)(C)C)c6c5)c4n3)c2)CC1` [P-331, 7-(3-tert-butylbenzimidazol-5-yl)-2-[3-(4-methylpiperazin-1-yl)phenyl]-5H-pyrrolo[2,3-b]pyrazine], the half-inhibitory concentration (IC50) in assay [1] and in assay [2] was 0.0001 to 1 µM each time.

With `CC(C)(C)n1cnc2ccc(-c3c[nH]c4ncc(-c5ccnc(C#N)c5)cc34)cc21` [P-291, 4-[3-(3-tert-butylbenzimidazol-5-yl)-1H-pyrrolo[2,3-b]pyridin-5-yl]pyridine-2-carbonitrile], the half-inhibitory concentration (IC50) in assay [1] and in assay [2] was 0.0001 to 1 µM in each case.

As to `FC(F)n1cc(-c2cnc3[nH]cc(-c4ccc5ncn(C6CCCNC6)c5c4)c3c2)cn1` (stereo not drawn) [P-274, 5-[1-(difluoromethyl)pyrazol-4-yl]-3-[3-(3-piperidyl)benzimidazol-5-yl]-1H-pyrrolo[2,3-b]pyridine], the 50% inhibitory concentration (IC50) in assay [1] and in assay [2] was 0.0001 to 1 µM throughout.

Turning to `CC(C)(C)n1cnc2ccc(-c3n[nH]c4ncc(-c5cccc(N6CCCS6(=O)=O)c5)cc34)cc21` [P-296, 2-[3-[3-(3-tert-butylbenzimidazol-5-yl)-1H-pyrazolo[3,4-b]pyridin-5-yl]phenyl]-1,2-thiazolidine 1,1-dioxide], the concentration for half-maximal inhibition (IC50) in assay [1] and in assay [2] was 0.0001 to 1 µM in each case.

`Cc1ncc(C#Cc2cnc3[nH]cc(-c4ccc5ncn(C(C)(C)C)c5c4)c3n2)cn1` [P-284, 7-(3-tert-butylbenzimidazol-5-yl)-2-[2-(2-methylpyrimidin-5-yl)ethynyl]-5H-pyrrolo[2,3-b]pyrazine]: the IC50 in assay [1] and in assay [2] was 0.0001 to 1 µM throughout.

For `O=S1(=O)CCCCN1c1cc(-c2cnc3[nH]cc(-c4ccc5ncn(C6CCCNC6)c5c4)c3n2)ccn1` (stereo not drawn) [P-310, 2-[4-[7-[3-(3-piperidyl)benzimidazol-5-yl]-5H-pyrrolo[2,3-b]pyrazin-2-yl]-2-pyridyl]thiazinane 1,1-dioxide], the 50% inhibitory concentration (IC50) in assay [1] and in assay [2] was 0.0001 to 1 µM each time.

Turning to `CCN1CCN(c2ccc(-c3cnc4[nH]cc(-c5ccc6ncn(C7CCCNC7)c6c5)c4n3)cn2)CC1` (stereo not drawn) [P-366, 2-[6-(4-ethylpiperazin-1-yl)-3-pyridyl]-7-[3-(3-piperidyl)benzimidazol-5-yl]-5H-pyrrolo[2,3-b]pyrazine], the 50% inhibitory concentration (IC50) in assay [1] and in assay [2] was 0.0001 to 1 µM in each case.

As for `CCN1CCN(c2ccc(-c3cnc4[nH]cc(-c5ccc6ncn(C(C)(C)C)c6c5)c4n3)cn2)CC1` [P-365, 7-(3-tert-butylbenzimidazol-5-yl)-2-[6-(4-ethylpiperazin-1-yl)-3-pyridyl]-5H-pyrrolo[2,3-b]pyrazine], the 50% inhibitory concentration (IC50) in assay [1] and in assay [2] was 0.0001 to 1 µM throughout.

With `CC(C)(C)n1cnc2ccc(-c3c[nH]c4ncc(-c5cccc(N6CCCCC6)c5)nc34)cc21` [P-336, 7-(3-tert-butylbenzimidazol-5-yl)-2-[3-(1-piperidyl)phenyl]-5H-pyrrolo[2,3-b]pyrazine], the IC50 in assay [1] and in assay [2] was 0.0001 to 1 µM in each case.

On to `O=S1(=O)CCCN1c1cc(-c2cnc3[nH]cc(-c4ccc5ncn(C6CCCNC6)c5c4)c3n2)ccn1` (stereo not drawn) [P-295, 2-[4-[7-[3-(3-piperidyl)benzimidazol-5-yl]-5H-pyrrolo[2,3-b]pyrazin-2-yl]-2-pyridyl]-1,2-thiazolidine 1,1-dioxide], for which the half-inhibitory concentration (IC50) in assay [1] and in assay [2] was 0.0001 to 1 µM each time.

In the case of `CC(C)(C)n1cnc2ccc(-c3c[nH]c4ncc(-c5ccnc(C#N)c5)nc34)cc21` [P-301, 4-[7-(3-tert-butylbenzimidazol-5-yl)-5H-pyrrolo[2,3-b]pyrazin-2-yl]pyridine-2-carbonitrile], the half-inhibitory concentration (IC50) in assay [2] lay in the range of 0.0001 to 1 µM.

For the compound `COc1cc(C#Cc2cnc3[nH]cc(-c4ccc5ncn(C6CCCNC6)c5c4)c3n2)ccn1` (stereo not drawn) [P-280, 2-((2-methoxypyridin-4-yl)ethynyl)-7-(1-(piperidin-3-yl)-1H-benzo[d]imidazol-6-yl)-5H-pyrrolo[2,3-b]pyrazine], the IC50 in assay [1] and in assay [2] was 0.0001 to 1 µM throughout.

For `c1cc(N2CCOCC2)ncc1-c1cnc2[nH]cc(-c3ccc4ncn(C5CCCNC5)c4c3)c2c1` (stereo not drawn) [P-321, 4-[5-[3-[3-(3-piperidyl)benzimidazol-5-yl]-1H-pyrrolo[2,3-b]pyridin-5-yl]-2-pyridyl]morpholine], the IC50 in assay [1] and in assay [2] was 0.0001 to 1 µM each time.

Regarding `CCN1CCN(c2cc(-c3cnc4[nH]cc(-c5ccc6ncn(C7CCCNC7)c6c5)c4n3)ccn2)CC1` (stereo not drawn) [P-327, 2-[2-(4-ethylpiperazin-1-yl)-4-pyridyl]-7-[3-(3-piperidyl)benzimidazol-5-yl]-5H-pyrrolo[2,3-b]pyrazine], the IC50 in assay [1] and in assay [2] was 0.0001 to 1 µM in each case.

On to `Cc1cc(C#Cc2cnc3[nH]cc(-c4ccc5ncn(C(C)(C)C)c5c4)c3n2)cc(C)n1` [P-282, 7-(3-tert-butylbenzimidazol-5-yl)-2-[2-(2,6-dimethyl-4-pyridyl)ethynyl]-5H-pyrrolo[2,3-b]pyrazine], for which the IC50 in assay [1] and in assay [2] was 0.0001 to 1 µM throughout.

Regarding `CC(C)(C)n1cnc2ccc(-c3c[nH]c4ncc(-c5ccnc(N6CCCCC6)c5)nc34)cc21` [P-338, 7-(3-tert-butylbenzimidazol-5-yl)-2-[2-(1-piperidyl)-4-pyridyl]-5H-pyrrolo[2,3-b]pyrazine], the half-inhibitory concentration (IC50) in assay [1] and in assay [2] was 0.0001 to 1 µM each time.

`c1cc(N2CCCCC2)ncc1-c1cnc2[nH]cc(-c3ccc4ncn(C5CCCNC5)c4c3)c2n1` (stereo not drawn) [P-348, 7-[3-(3-piperidyl)benzimidazol-5-yl]-2-[6-(1-piperidyl)-3-pyridyl]-5H-pyrrolo[2,3-b]pyrazine]: the 50% inhibitory concentration (IC50) in assay [1] and in assay [2] was 0.0001 to 1 µM each time.

Turning to `COc1cnc2[nH]cc(-c3ccc4ncn(C(C)(C)C)c4c3)c2c1` [P-074, 1-tert-butyl-6-(5-methoxy-1H-pyrrolo[2,3-b]pyridin-3-yl)benzimidazole], the half-inhibitory concentration (IC50) in assay [2] was in the range of 0.0001 to 1 µM.

Compound `CC(C)(C)n1cnc2ccc(-c3c[nH]c4ncc(-c5cnc(F)c(F)c5)nc34)cc21` [P-390, 7-(3-tert-butylbenzimidazol-5-yl)-2-(5,6-difluoro-3-pyridyl)-5H-pyrrolo[2,3-b]pyrazine] had a concentration for half-maximal inhibition (IC50) in assay [1] of 1 to 10 µM.

In assay [1], `COc1ncc(-c2cnc3[nH]cc(-c4ccc5ncn(C(C)(C)C)c5c4)c3n2)cc1C#N` [P-405, 5-[7-(3-tert-butylbenzimidazol-5-yl)-5H-pyrrolo[2,3-b]pyrazin-2-yl]-2-methoxy-pyridine-3-carbonitrile] showed an IC50 of 0.0001 to 1 µM.

Broadly, the IC50 is the concentration that gives 50% inhibition. Read a high IC50 as weaker potency in that assay.
